These results are taken from PMC6246635 (Frontiers in Physiology, 2018).

One series relates to CaMKII. As to the kind of experiment: Western blot pCaMKII (T286). The series is classed as cell-based, murine. The note with it: HL-1 cells. The method, then:
(§1) HL-1 cells (a murine cardiomyocyte cell line, Sigma-Aldrich, Vienna, Austria) were cultured in fibronectin (0.5% [w/v])/gelatin (0.02% [w/v]) coated flasks and maintained in Claycomb medium (Sigma-Aldrich) ([Claycomb et al., 1998]) containing 10% (v/v) fetal bovine serum (FBS, Thermo Fisher Scientific, IL, United States), 0.1 mM norepinephrine, 2 mM L-glutamine, 100 IU/ml penicillin and 100 μg/ml streptomycin (Sigma-Aldrich), and kept at 37°C under 5% CO2, as previously described ([Scheruebel et al., 2014]).
(§2) HL-1 cells or mouse left ventricle (LV) were lysed in ice-cold lysis buffer (containing in mM: HEPES 50, NaCl 150, EDTA 1, Na4P2O7 10, Na3VO4 2, NaF 10, 1% [v/v] Triton X-100, 10% [v/v] glycerol, pH 7.4, Sigma-Aldrich) containing a Protease Phosphatase Inhibitor Cocktail (Thermo Fisher Scientific). Pellets were separated by centrifugation at 13,000 rpm (4°C, 10 min). Protein estimation of whole cell was performed using BCA protein assay kit (Thermo Fisher Scientific). Whole cell protein lysates (50 μg) were added to 10 μl of NuPAGE LDS sample buffer (Invitrogen) containing 2 μl of NuPAGE sample reducing agent (Invitrogen). After heating for 10 min at 70°C, proteins were separated by electrophoresis on NuPAGE 4–12% Bis-Tris gel (Invitrogen) and transferred to nitrocellulose membranes (Invitrogen, 0.2 μm) ([Jain et al., 2015]). Membranes were blocked with 5% (w/v) non-fat milk in Tris-buffered saline containing Tween 20 (TBST, 25°C, 2 h) and incubated with primary antibodies overnight at 4°C. The following primary antibodies (diluted in 5% [w/v] BSA-TBST) were used: phospho-CaMKII (pCaMKII, T286, 1:1000, Abcam, ab32678), phospho-PLB (pPLB, T17, 1:5000, Badrilla, A010-13), DPP8 (1:500, Santa Cruz, sc-376399), DPP9 (1:500, Santa Cruz, sc-271634), CaMKII (1:500, Santa Cruz, sc-9035), and PLB (1:2000, Thermo Fisher Scientific, MA3-922). After washing, the membranes were incubated with HRP-conjugated goat anti-mouse IgG (1:10,000, Cell Signaling, 7076) or goat anti-rabbit IgG (1:10,000, Cell Signaling, 7074) (25°C, 2 h). Immunoreactive bands were visualized using Immobilon Western Chemiluminescent HRP substrate (Merck Millipore, Vienna, Austria) and developed by Bio-Rad ChemiDoc MP Imaging System. For normalization, membranes were stripped with stripping buffer (58.4 g/l NaCl, 7.5 g/l glycine, pH 2.15), blocked and incubated with a primary antibody against glyceraldehyde 3-phosphate dehydrogenase (GAPDH, 1:1000, Santa Cruz, sc-25778). Densitometric evaluation of immunoreactive bands was performed using Image Lab 4.1 software.
(§3) HL-1 cells were transfected with siRNAs (four different constructs) specific for DPP8 or DPP9 (40 nM each, Qiagen), or scrambled negative control siRNA (40 nM si-scr; Allstars negative control siRNA, Qiagen) ([Koyani et al., 2014]). The siRNA transfection was performed using Lipofectamine 3000 (Invitrogen) according to the supplier’s manual. Briefly, HL-1 (50% confluent) were transfected with 1 ml medium (composition of medium is given above, without FBS and antibiotics) containing 2 μl of Lipofectamine 3000 and the respective siRNA for 6 h at 37°C. Transfection medium was replaced with medium (containing FBS and antibiotics) and cells were grown for another 24 h. The mRNA expression levels of silenced genes were measured using qPCR (see above).

In another series the test system is PLB. Put plainly: Western blot pPLB (T17). As to conditions: HL-1 cells. In kind it is cell-based, murine. The method, then:
as §1, §2, §3
(In general: A western blot detects proteins with antibodies after separation by electrophoresis.)

In the next series the test system is CaMKII and PLB. As to the kind of experiment: Western blot total CaMKII and PLB expression. The note with it: HL-1 cells, 2 μM, time course. In kind it is cell-based, murine. The method, then: as §1
HL-1 cells or mouse left ventricle (LV) were lysed in ice-cold lysis buffer (containing in mM: HEPES 50, NaCl 150, EDTA 1, Na4P2O7 10, Na3VO4 2, NaF 10, 1% [v/v] Triton X-100, 10% [v/v] glycerol, pH 7.4, Sigma-Aldrich) containing a Protease Phosphatase Inhibitor Cocktail (Thermo Fisher Scientific). Pellets were separated by centrifugation at 13,000 rpm (4°C, 10 min). Protein estimation of whole cell was performed using BCA protein assay kit (Thermo Fisher Scientific). Whole cell protein lysates (50 μg) were added to 10 μl of NuPAGE LDS sample buffer (Invitrogen) containing 2 μl of NuPAGE sample reducing agent (Invitrogen). After heating for 10 min at 70°C, proteins were separated by electrophoresis on NuPAGE 4–12% Bis-Tris gel (Invitrogen) and transferred to nitrocellulose membranes (Invitrogen, 0.2 μm) ([Jain et al., 2015]). […]

For series [1], the system named is PKC. Put plainly: PKC activity assay in HL-1 cells. The series is classed as cell-based, murine. The method, then: as §1, §3
Estimation of active PKC was performed using a PKC kinase activity kit (ADI-EKS-420A, Enzo Life Sciences, NY, United States) according to the manufacturer’s protocol.

In series [2] the test system is mouse ventricular cardiomyocytes. As to the kind of experiment: Ca2+ transient (CaT) measurement. In kind it is cell-based. As to conditions: 2 μM, 2 h, 1 Hz. The method, then: (§4) Cardiomyocytes were isolated from adult mice (14–18 weeks old, either sex). The experimental procedure and number of used animals were approved by the ethics committee of the Federal Ministry of Science, Research and Economy of the Republic of Austria (BMWF-66.010/0038-V/3b/2018). Mice were euthanized (40 mg/kg ketamine and 10 mg/kg xylazine), hearts were quickly removed and cardiomyocytes were isolated as previously described ([Ackers-Johnson et al., 2016]) using collagenase 2 and 4 (Worthington Biochemical Corporation, NJ, United States). After isolation cardiomyocytes were kept in standard external solution (containing in mM: NaCl 137, KCl 5.4, CaCl2 1.8, MgCl2 1.1, NaHCO3 2.2, NaH2PO4 0.4, HEPES/Na^+ 10, D(+)-glucose 5.6, pH 7.4 adjusted with NaOH). All experiments were performed on the day of isolation.
CaT was assessed by field stimulation (platinum electrode distance: 1 cm; pulse duration: 5 ms; suprathreshold pulse amplitude: 4 V/cm) at a frequency of 1 Hz using a video-based sarcomere length detection system (IonOptix Corporation, MA, United States) at 37°C. Fluorescence intensities were measured at 340 and 380 nm of excitation and at 510 nm of emission wavelengths using a dual excitation light source. The F340/F380 ratio was used as an index of cytosolic Ca^2+ concentration and to calculate CaT relaxation tau (τCaT). Data were analyzed using Clampfit 10.2 (Molecular Devices) and LabChart 7.0 (peak analysis module, ADInstruments Ltd., Oxford, United Kingdom).

A further series concerns DPP8. More on the design: method as in Lankas et al., 2005. The note with it: ref Lankas et al., 2005; cited from earlier work.
The subject of a further series is DPP9. Details: method as in Lankas et al., 2005. As to conditions: ref Lankas et al., 2005; cited from earlier work.
Details of series [3]: method as in Udenfriend et al., 1972. The note with it: unbound, aqueous solution; ref Udenfriend et al., 1972; cited from earlier work.
The nature of series [4]: plasma Cmax after single dose. In kind it is in vivo. The note with it: human, 5 mg single dose, equivalent of 24 ng/ml (Onglyza, 2016), read-out: plasma Cmax, molar equivalent.
In series [5] the test system is mouse ventricular cardiomyocytes. Put plainly: patch clamp action potential recording. In kind it is cell-based. The note with it: 2 μM, 5 min superfusion, 1 Hz. The method, then: as §4
Action potentials (APs) were recorded in the whole cell configuration of the patch clamp technique using Axopatch 200B amplifier (Molecular Devices, CA, United States) and the A/D – D/A converters Digidata 1322A (Molecular Devices). […] Ten consecutive APs were analyzed using LabChart 7.0 (Cardiac action potential analysis module, ADInstruments Ltd., Oxford, United Kingdom).

On the set-up of series [6]: method as in Onglyza, 2016. As to conditions: 5 mg single dose; ref Onglyza, 2016; cited from earlier work.
Details of series [7]: method as in Koyani et al., 2017; Lee et al., 2016; He et al., 2009. As to conditions: in vitro studies; ref Koyani et al., 2017; Lee et al., 2016; He et al., 2009; cited from earlier work.
Series [8] deals with PKC. Details: method as in Dai et al., 2014. As to conditions: THP-1 macrophages; ref Dai et al., 2014; cited from earlier work.
A further series has as its system HL-1 cardiomyocytes. As to the kind of experiment: fluorescence microscopy of fluorescamine adduct uptake. In kind it is cell-based, murine. The note with it: HL-1 cells, drug-fluorescamine 2–2 μM. The method, then: as §1, with “2014]). […] Fluorescence images were captured at excitation/emission wavelengths of 390/470 nm.” for “2014]).”
Details of series [9]: method as in Green et al., 2015. As to conditions: TECOS trial, T2DM patients; ref Green et al., 2015; cited from earlier work.
The subject of series [10] is PKC. More on the design: method as in Hasegawa et al., 2016. As to conditions: human endothelial cells; ref Hasegawa et al., 2016; cited from earlier work.

Molecules are shown by their SMILES. Some results are limits rather than exact numbers.

For orientation: IC50 means the point on the concentration scale where inhibition reaches its midpoint. For the molecule `CC[C@@H](C)[C@H](N)C(=O)N1Cc2ccccc2C1.Cl` [TC-E 5007], the “reduced CaMKII phosphorylation (T286), time from which observed” value with CaMKII (2 μM) is ≥ 30 min. Besides, in the series with PLB (2 μM), the “reduced pPLB (T17), time from which observed” value is ≥ 60 min. Also, the “total CaMKII and PLB protein levels” value in the series with CaMKII and PLB is recorded as “did not affect”. Further, in the series with PKC [1] (2 μM), the “reduced PKC activity, time from which observed” value is listed as ≥ 10 min. Further, the “CaT relaxation (reciprocal of τCaT)” value in series [2] is on record as “impaired cardiac relaxation”. Besides, the IC50 with DPP8 was […]; in the series with DPP9, […].
As usually defined, the half-life is the time in which the quantity being followed falls by half. On to `O=C1OC2(OC=C(c3ccccc3)C2=O)c2ccccc21` (stereo not shown) [fluorescamine], for which the half-life in [3] is 5 to 10 s.
Usually Cmax stands for the highest concentration seen after dosing. In the case of `N#C[C@@H]1C[C@@H]2C[C@@H]2N1C(=O)[C@@H](N)C12CC3CC(CC(O)(C3)C1)C2` [saxagliptin], the maximum concentration (Cmax) in series [4] is ~76 nM. Besides, the “reduced CaMKII phosphorylation (T286), time from which observed” value in the series with CaMKII (2 μM) is on record as ≥ 2.5 min. Further, in the series on CaMKII (2 μM, 5 min, si-DPP8), the “pCaMKII expression in DPP8 knocked down cardiomyocytes” value was “effectively inhibited”. The “inhibition of CaMKII phosphorylation, concentration from which observed” value with CaMKII (5 min) is reported as ≥ 200 nM. Further, the “reduced pPLB (T17), time from which observed” value in the series on PLB (2 μM) is given as ≥ 15 min. The “efficacy on pPLB expression in DPP8/DPP9 silenced cells” value in the series with PLB (2 μM, 30 min) was “abolished in DPP9 (but not DPP8) silenced cells”. The “reduced pPLB expression, concentration from which observed” value with PLB (30 min) is ≥ 200 nM. In the series with PKC [1] (2 μM), the “reduced PKC activity, time from which observed” value is ≥ 2.5 min. The “efficacy on PKC activity in DPP8/DPP9 silenced cardiomyocytes” value with PKC [1] (2 μM, 10 min) was “significantly abolished in DPP9 (but not DPP8) silenced cardiomyocytes”. Besides, the “reduced PKC activity, concentration from which observed” value with PKC [1] (10 min) is ≥ 1 µM. In addition, the “CaT relaxation (reciprocal of τCaT)” value in series [2] is “impaired cardiac relaxation”. For the same molecule, in [5], the “action potential duration (APD, 90% repolarization)” value was “prolongation of APD”. Further, the “plasma Cmax” value in [6] was 24 ng/mL. Moreover, in [7], the membrane permeability result was “significant membrane permeability”. The “oxidized low-density lipoprotein-induced pPKC levels” value in the series with PKC [8] is recorded as “inhibited”.
Consider `N[C@@H](CC(=O)N1CCn2c(nnc2C(F)(F)F)C1)Cc1cc(F)c(F)cc1F` [sitagliptin], for which the “cellular uptake and localization (fluorescence)” value in the series with HL-1 cardiomyocytes was “internalized by cardiomyocytes and localizes in the cytosol”. The “effect on pCaMKII expression, time course” value in the series on CaMKII (2 μM) was “failed to inhibit”. Besides, the “effect on CaMKII phosphorylation, concentration-dependent” value in the series on CaMKII (up to 10 μM, 5 min) is reported as “no effect”. For the same molecule, the “effect on PLB phosphorylation levels” value in the series on PLB (time course (2 μM) and concentration series (30 min)) is given as “neither time- (Figure 2F) nor concentration-dependent experiments (Figure 2H) showed an effect”. Also, the “effect on intracellular PKC activity” value in the series with PKC [1] (time course (2 μM) and concentration series (10 min)) was “no effect”. For the same molecule, in [2], the “CaT relaxation (reciprocal of τCaT)” value is “ineffective”. Also, in series [5], the “action potential duration (APD, 90% repolarization)” value was “not”. For the same molecule, in series [9], the “effect on the hospitalization of HF” value is given as “did not show any effect”. The membrane permeability result in series [7] was “significant membrane permeability”. For the same molecule, the “effect on PKC activity” value in the series on PKC [10] was “ineffective”.
For the molecule `N#C[C@@H]1CCCN1C(=O)CNC12CC3CC(CC(O)(C3)C1)C2` [vildagliptin], the membrane permeability result in [7] is on record as “significant membrane permeability”.
